In PubChem BioAssay (NCI) one finds TGI and GI50 data, which are given here for 10 compounds.

Among the test systems are LOX IMVI melanoma; HCC-2998 colon; MALME-3M melanoma; HS 578T breast; EKVX NSCLC; COLO 205 colon; NCI-H460 lung; NCI-H522 lung; U251 CNS; OVCAR-3 ovarian.
Holding throughout (assay): NCI-60 cell line screen, 48 h

Several values for one entry are separate records, joined by “and”; a condition that tells them apart may be missing. Equal entries are not always repeated.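 Following 48 hours of exposure in 96-well plates, responses at five concentrations were used to interpolate endpoints linearly. At the GI50, growth is halved. TGI: concentration producing complete growth inhibition.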

As for `COc1ccc(NC(=O)CC(=O)n2nc(-c3ccccc3)c(N=Nc3ccc(C)cc3)c2-c2ccccc2)cc1`, the TGI in the test with LOX IMVI melanoma was above 100 µM; in the test on HCC-2998 colon, above 100 µM; in the test with MALME-3M melanoma, 70.3 µM; with HS 578T breast, 60.7 µM; in the test on EKVX NSCLC it was above 51.4 µM; with COLO 205 colon, above 100 µM. Further, the TGI with NCI-H460 lung stood at 66.3 µM; with NCI-H522 lung, 48.3 µM; in the test on U251 CNS, 47.5 µM; with OVCAR-3 ovarian, 77.2 µM.
In the case of `N=C(N)c1ccc(-c2ccc(-c3ccco3)o2)cc1`, the GI50 with LOX IMVI melanoma is 2.23 µM; with HCC-2998 colon, 1.85 µM; in the test on MALME-3M melanoma, 2.15 µM; in the test on HS 578T breast, 4.82 µM; in the test on COLO 205 colon it was 1.78 µM; with NCI-H460 lung, 2.43 µM. The GI50 is 3.73 µM with NCI-H522 lung, 2.92 µM with U251 CNS and 9.77 µM with OVCAR-3 ovarian. The TGI in the test on LOX IMVI melanoma came out at 5.2 µM; in the test with HCC-2998 colon, 3.42 µM; in the test with MALME-3M melanoma it was 4.12 µM; with HS 578T breast it was 24.2 µM; with COLO 205 colon, 3.48 µM; in the test with NCI-H460 lung, 6.6 µM. Further, the TGI in the test on NCI-H522 lung was 14.6 µM; in the test with U251 CNS, 11.8 µM; in the test on OVCAR-3 ovarian, 22.1 µM.
For `CC(=O)O/N=C1\C=Cc2c(no[n+]2[O-])C1=O`, the TGI in the test with LOX IMVI melanoma came out at 36.2 µM; with HCC-2998 colon it was 38.7 µM; in the test with MALME-3M melanoma, 28.1 µM; in the test on HS 578T breast it was 56.3 µM; in the test on EKVX NSCLC, 31.5 µM; in the test on COLO 205 colon, 22 µM. Further, the TGI in the test with NCI-H460 lung is above 100 µM; in the test with NCI-H522 lung, 32.8 µM; in the test on OVCAR-3 ovarian it was 30 µM.
Consider `COC1=C(NC(C)=O)C(=O)c2nc3n(c2C1=O)CCC3`, for which the TGI is 31.8 µM in the test on LOX IMVI melanoma; 65.8 µM in the test on HCC-2998 colon; 34.8 µM in the test on MALME-3M melanoma; 82.8 µM with HS 578T breast; 38.9 µM in the test on EKVX NSCLC; 38.6 µM in the test with COLO 205 colon. The TGI in the test with NCI-H460 lung was above 76 µM; in the test with NCI-H522 lung it was 40.1 µM; in the test with U251 CNS, above 59.9 µM; in the test on OVCAR-3 ovarian, 30.3 µM.
With `COc1cccc(-n2cnc3c(N/N=C/c4ccncc4)ncnc32)c1`, the GI50 with LOX IMVI melanoma is 12.8 µM; in the test with HCC-2998 colon it was above 25 µM; in the test with MALME-3M melanoma it was 10.2 µM; in the test on HS 578T breast, 7.47 µM; in the test with EKVX NSCLC, above 25 µM; in the test on COLO 205 colon, 11.4 µM. The GI50 with NCI-H460 lung was 13.6 µM; with NCI-H522 lung, above 14.6 µM; in the test with U251 CNS it was above 25 µM; in the test with OVCAR-3 ovarian it was above 20.8 µM. Also, the TGI in the test with LOX IMVI melanoma, in the test with HCC-2998 colon, in the test with MALME-3M melanoma, in the test with HS 578T breast, with EKVX NSCLC and in the test with COLO 205 colon was above 25 µM throughout. The TGI in the test on NCI-H460 lung, in the test with NCI-H522 lung, in the test on U251 CNS and with OVCAR-3 ovarian was above 25 µM each time.
In the case of `O=C(O)c1cc(/C=C/c2ccc(O)c(O)c2)ccc1O`, the TGI in the test on LOX IMVI melanoma, with HCC-2998 colon, in the test with MALME-3M melanoma, in the test with HS 578T breast, in the test on EKVX NSCLC and in the test with COLO 205 colon was above 100 µM throughout. In addition, the TGI with NCI-H460 lung, with NCI-H522 lung, with U251 CNS and in the test with OVCAR-3 ovarian was above 100 µM in each case.
Consider `CCCCCc1c(C)[nH]c(/C=C2\N=C(c3ccc[nH]3)C=C2Oc2ccc(OC)cc2)c1C`, for which the GI50 in the test on LOX IMVI melanoma is 0.0406 µM and 0.0197 µM; in the test on HCC-2998 colon it was 0.0963 µM and 0.0369 µM; with MALME-3M melanoma, 0.262 µM and 0.0744 µM; with HS 578T breast, 0.15 µM and 0.0228 µM; with COLO 205 colon, 0.125 µM and 0.028 µM; in the test with NCI-H460 lung, 0.085 µM and 0.038 µM. In addition, the GI50 in the test with NCI-H522 lung is 0.0135 µM; in the test on U251 CNS it was 0.0811 µM and 0.026 µM; with OVCAR-3 ovarian, 0.156 µM and 0.0414 µM. Moreover, the TGI in the test with LOX IMVI melanoma is 0.289 µM and 0.0534 µM; in the test with HCC-2998 colon, 6.44 µM and 1.91 µM; in the test with MALME-3M melanoma, 1.34 µM and 0.261 µM; in the test with HS 578T breast, 0.701 µM and 0.139 µM; with COLO 205 colon, 0.502 µM and 0.19 µM; in the test on NCI-H460 lung, 1.17 µM. In addition, the TGI in the test with NCI-H522 lung was 0.19 µM; in the test with OVCAR-3 ovarian, 0.511 µM and 0.318 µM.
As to `O=C(/C=C/c1ccccc1O)CC(=O)/C=C/c1ccccc1O`, the TGI with LOX IMVI melanoma was 6.45 µM; in the test with HCC-2998 colon, 15.8 µM; with MALME-3M melanoma it was 17.5 µM; with HS 578T breast it was above 31.6 µM; in the test with EKVX NSCLC, 31.3 µM; with NCI-H460 lung, 30.7 µM. For the same compound, the figures for the TGI with NCI-H522 lung, in the test on U251 CNS and in the test on OVCAR-3 ovarian were 9.83 µM, 13 µM and 22.3 µM, respectively.
Take `Oc1ccc(Br)cc1CN1CCN(Cc2ccc(Cl)cc2)CC1`: the GI50 is 16.3 µM in the test with LOX IMVI melanoma; 30.8 µM with HCC-2998 colon; 14.7 µM with MALME-3M melanoma; 28.6 µM in the test with HS 578T breast; 21.7 µM in the test with COLO 205 colon; 25.7 µM in the test with NCI-H460 lung. The GI50 was 13.3 µM in the test on NCI-H522 lung, 27.7 µM in the test with U251 CNS and 26.3 µM in the test on OVCAR-3 ovarian. Further, the TGI with LOX IMVI melanoma is 36.9 µM; with HCC-2998 colon, above 100 µM; in the test on MALME-3M melanoma, 45.8 µM; in the test on HS 578T breast it was above 100 µM; in the test with COLO 205 colon, 51.1 µM; in the test on NCI-H460 lung, above 100 µM. Further, the TGI in the test with NCI-H522 lung was 39.2 µM; in the test on U251 CNS it was above 100 µM; with OVCAR-3 ovarian, above 100 µM.
`CC(C)=CCNc1ncnc2c1ncn2C1OC(COP(=O)(O)O)C(O)C1O` (centres undefined): the GI50 in the test on LOX IMVI melanoma was 0.581 µM; in the test on HCC-2998 colon, 10.7 µM; in the test with MALME-3M melanoma it was 73.8 µM; in the test on HS 578T breast, 2.67 µM; in the test with COLO 205 colon, 4.59 µM; in the test on NCI-H460 lung, 7.24 µM. In addition, the GI50 with NCI-H522 lung was 4.8 µM; with U251 CNS, above 100 µM; in the test with OVCAR-3 ovarian, 2.13 µM. The TGI in the test with LOX IMVI melanoma was 2.55 µM; with HCC-2998 colon, above 100 µM; in the test on MALME-3M melanoma it was above 100 µM; in the test on HS 578T breast it was 21.8 µM; in the test on COLO 205 colon it was above 58.8 µM; in the test with NCI-H460 lung it was above 100 µM. For the same compound, the values for the TGI in the test on NCI-H522 lung, in the test on U251 CNS and in the test with OVCAR-3 ovarian were 89.4 µM, above 100 µM and 4.41 µM, respectively.
